Measured values published in patent US20080045596A1, “Ep2 Receptor Agonists” (priority 2003, published 2008).
Read-outs that look alike come from different tables or passages of the source.

Legend:
[1] = system: human myometrium; experiment: Electrical field stimulation (EFS) induced contractions of human myometrial strips
Description: The following describes an in vitro functional assay, using human myometrial smooth muscle, to determine the affinity of the test compounds at the EP2 receptor in human tissues.
Sections of human myometrium were prepared from samples of surgically removed uterus longitudinal myometrial muscle strips (2 mm wide by 10 mm long) were then cut and suspended between stainless steel hooks in organ chambers containing oxygenated (95% O2/5% CO2) Krebs solution at 37° C. The composition of the Krebs solution was as follows: NaCl (118.2 mM), KCl (4.69 mM), MgSO4.7H2O (1.18 mM), KH2PO4 (1.19 mM), glucose (11.1 mM), NaHCO3 (25.0 mM), CaCl2.6H2O (2.5 mM), indomethacin 3×10^−6M.
Tissues were placed under a tension equivalent to 25 mN and left overnight at room temperature. The following day the tissues were maintained at 37° C., washed and placed under a tension of 15 mN then allowed to equilibrate for a period of at least 30 minutes. Responses were recorded using isometric transducers coupled to an Apple Macintosh computer via a MacLab interface. After 60 minutes, the muscle sections of the human myometrium were stimulated electrically (15 ms pulse width, for 10 s every 100 s at 15V and 0.5-40 Hz) using parallel platinum wire electrodes and a Multistim D330 pulse stimulator. Upon electrical stimulation, the strips of human myometrial smooth muscle responded with a rapid contraction. Once the response to electrical stimulation had stabilised (stimulated responses differed by no more than 10%), the strips were exposed to increasing concentrations of test compounds (1×10^−7 to 1×10^−4M, incubated for at least 15 minutes at each concentration). At the end of the experiment, application of sodium nitroprusside (SNP, a nitric oxide donor that causes smooth muscle relaxation) (1×10^−4M) was used to produce a standard relaxatory response. To determine the affinity of the compounds, the concentration of test compound required to produce half-maximal effects (EC50) was calculated, as was the maximum response (calculated as a percentage of the standard response produced with SNP).

[2] = system: interferon gamma release by lymphocytes; experiment: Lymphocyte assay: interferon gamma release; format: cell-based, human; conditions: FIG. 11, two donors
Source text: Lymphocytes are mononuclear leukocytes, which participate in specific immune responses to foreign antigens and in the manifestation of auto-immune diseases. T lymphocytes produce IL-2, a key factor for lymphocyte activation and proliferation, in response to antigen stimulation via the CD3-T cell receptor complex and the pathway involved in this response is the NF-AT. […] A lymphocyte assay was designed to model this response and to determine the effect of test compound on IL-2 production by anti-CD3-stimulated T cells isolated from peripheral blood. This assay uses a sub-optimal dose of an anti-CD3 monoclonal antibody (OKT3, 25 ng/ml) immobilised to a 96-well plate to stimulate a T cell response. The level of IL-2 released into the cell culture supernatants was quantified using a standard sandwich ELISA. Similarly, other cytokines such as TNFα and IFN-γ can also be measured in the same assay. […]
Lymphocytes were then seeded to a 96-well plate pre-coated with anti-CD3 monoclonal antibody (OKT3) at 25 ng/ml and immediately, the test compounds (Peak 1, mixture 1 acid; Peak 1, mixture 2 acid; AH-13205 racemate; PGE2) in appropriate dilutions were added to corresponding wells according to the experimental design. […] The levels of IFN-γ was assessed by using the ProteoPlex 16 well human cytokine array assay kit according to the manufacturer's instruction.

[3] = biological target: T1, human EP2 receptor (Homo sapiens, UniProt P43116); experiment: cAMP production in HEK cells stably expressing the human EP2 receptor; format: cell-based; conditions: 15 min stimulation, 4 experiments, logarithm of EC50
T1 construct: expressed in transfected cells; host or cells: HEK cells (HEK-EP2)
Description: The following describes an in vitro assay to determine the effect of compounds on cyclase production, that is, to determine their functional efficacy at the EP2 receptor.
HEK cells stably expressing the human EP2 receptor were used for these assays. HEK-EP2 cells were cultured in 96-well, poly-L-lysine coated plates at a density of 50,000 cells/well, and grown to confluence in humidified […]/5% CO2 at 37° C. Culture medium was DMEM supplemented with 10% foetal bovine serum, 100 U/ml penicillin, […] streptomycin, 2.5 μg/ml fungizone, 2 mM glutamine, 250 μg/ml geneticin and 200 μg/ml zeocin.
On reaching confluence, culture media was rinsed off using DMEM with no additions, before 175 μl assay buffer (DMEM containing 1 mM 3-isobutyl-1-methylxanthine and 3 μM indomethacin) was added to each well. This was allowed to incubate for 1 hr before the cells were stimulated with the test compounds (in triplicate) at final concentrations of 10^−9M to 10^−5M for 15 minutes. The assay was terminated by the addition of 25 μl 1M hydrochloric acid. Plates were then frozen for a minimum of 12 hours or until required for radioligand displacement assay.
Plates were thawed quickly at 37° C., and neutralised with 25 μl 1M sodium hydroxide. 30 μl of supernatant was transferred to 96-well Millipore (MAFNOB) plates coated with 0.1% Polyethylenimine. These supernatants were diluted by addition of 90 μl cAMP assay buffer (50 mM Tris, 5 mM EDTA, pH 7.0). A cAMP standard curve (10^−11M to 10^−5M) was constructed. 15 μl of 3′:5′-cAMP-dependent protein kinase (final concentration 8 μg/well), and 15 μl [^3H]-cAMP (final concentration 2 nM/well) were added to each well.
Plates were incubated on ice for 2 hours, before bound and free radiolabel were separated by vacuum filtration harvesting on the Millipore manifold, using ice cold water as the termination buffer. […]
Radioactivity was determined using the Microbeta Trilux scintillation counter. cAMP accumulation was determined from the standard curve, and the values plotted as pmoles cAMP/well.

[4] = system: TNFα production by LPS-stimulated monocytes; experiment: Monocyte assay: LPS-induced TNFα secretion; format: cell-based, human; conditions: Table 11/FIG. 14, mean of three donors, LPS 100 ng/ml, 24 h
Source text: Monocytes are peripheral mononuclear phagocytes that participate in inflammatory responses. TNFα production by monocytes plays an important role in inflammatory responses and can cause considerable tissue damage if the level remained unchecked. Inhibition of TNFα secretion by activated monocytes may provide an attractive therapy for the treatment of inflammatory conditions.
A 96 well in vitro assay was established to determine the effects of test compounds on LPS-induced TNFα secretion by human peripheral blood monocytes. The level of TNFα in assay supernatants was quantified using a standard sandwich ELISA.
Human peripheral blood mononuclear cells from healthy volunteers were isolated from whole blood by Ficoll-Hypaque density centrifugation and adherence to plastic. The non-adherent lymphocyte fraction was used to set up the lymphocyte assay and the adherent monocytes were then recovered by scraping and subsequently used in the monocyte assay.
For the monocyte assay, the cells were plated onto 96-well plates and pre-treated for 1 hour at 37° C./5% CO2 with the test compound (Peak 1, mixture 1 acid; Peak 1, mixture 2 acid; AH-13205 racemate), followed by the addition of LPS (100 ng/ml) to initiate the reaction. The plate was incubated for 24 hours and supernatants were recovered for the measurement of TNFα production by ELISA.

[5] = biological target: T1, human EP2 receptor; experiment: Radioligand ([3H]PGE2) competition displacement binding, human EP2 receptor membranes; conditions: for pKi EP2: human EP2, [3H]PGE2 displacement, Cheng-Prusoff, mean of 4 experiments
Description: (§1) Membranes were prepared from cells stably transfected with human EP receptor cDNA. In brief, cells were cultured to confluency, scraped from culture flasks, and centrifuged (800 g, 8 minutes, 4° C.). Cells were twice washed in ice cold homogenisation buffer containing 10 mM Tris-HCl, 1 mM EDTA.2Na, 250 mM sucrose, 1 mM PMSF, 0.3 mM indomethacin, pH 7.4, homogenised and re-centrifuged as before. The supernatant was stored on ice and pellets re-homogenised and re-spun. Supernatants were pooled and centrifuged at 40000 g, 10 minutes, 4° C. Resultant membrane pellets were stored at −80° C. until use.
(§2) For assay, membranes expressing human EP4, EP3, EP2 or EP1 receptors were incubated in Millipore (MHVBN45) plates containing assay buffer, radiolabelled [^3H]PGE2 and 0.1 to 10 000 nM concentrations of compounds. Incubations were performed at suitable temperatures and for suitable times to allow equilibrium to be reached. Non-specific binding was determined in the presence of 10 uM PGE2. Bound and free radiolabel was separated by vacuum manifold filtration using appropriate wash buffers, and bound radiolabel was determined by scintillation counting. Constituents of each of the buffers are included in table 4 below.
(§3) The affinity or pKi of each compound for each receptor was calculated from the concentration causing 50% radioligand displacement (IC50) using the Cheng-Prusoff equation: […]
(§4) This approach follows that set out in Kenakin, T. P., Pharmacologic analysis of drug receptor interaction. Raven Press, New York, 2nd edition.

[6] = biological target: T2, human EP4 receptor (Homo sapiens, UniProt P35408); experiment: Radioligand ([3H]PGE2) competition displacement binding, human EP4 receptor membranes; conditions: human EP4, [3H]PGE2 displacement
T2 construct: expressed in transfected cells
Description: as §1, §2, §3, §4

[7] = biological target: T3, human EP3 receptor (Homo sapiens, UniProt P43115); experiment: Radioligand ([3H]PGE2) competition displacement binding, human EP3 receptor membranes; conditions: human EP3, [3H]PGE2 displacement
T3 construct: expressed in transfected cells
T3 sequence (P43115 1-390): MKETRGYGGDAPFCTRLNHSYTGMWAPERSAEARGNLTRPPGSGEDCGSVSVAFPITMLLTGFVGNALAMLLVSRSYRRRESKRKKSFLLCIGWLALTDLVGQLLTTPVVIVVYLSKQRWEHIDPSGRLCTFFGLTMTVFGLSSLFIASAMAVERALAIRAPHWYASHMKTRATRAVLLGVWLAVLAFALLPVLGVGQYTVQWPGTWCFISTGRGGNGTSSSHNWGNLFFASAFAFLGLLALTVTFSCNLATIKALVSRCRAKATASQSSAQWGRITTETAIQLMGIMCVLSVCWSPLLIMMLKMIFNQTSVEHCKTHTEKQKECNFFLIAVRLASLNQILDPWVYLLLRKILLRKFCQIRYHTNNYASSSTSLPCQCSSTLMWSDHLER
Description: as §1, §2, §3, §4

T1 sequence (P43116 whole entry): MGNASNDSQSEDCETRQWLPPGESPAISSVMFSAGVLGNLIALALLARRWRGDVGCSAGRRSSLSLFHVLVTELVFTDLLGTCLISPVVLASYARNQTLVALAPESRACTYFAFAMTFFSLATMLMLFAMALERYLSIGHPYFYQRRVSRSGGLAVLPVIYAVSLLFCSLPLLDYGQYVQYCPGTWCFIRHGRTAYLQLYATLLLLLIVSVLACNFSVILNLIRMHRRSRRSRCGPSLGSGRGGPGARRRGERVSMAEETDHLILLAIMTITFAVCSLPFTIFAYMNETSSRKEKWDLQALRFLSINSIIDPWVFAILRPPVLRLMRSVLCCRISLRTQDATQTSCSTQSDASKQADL
T2 sequence (P35408 whole entry): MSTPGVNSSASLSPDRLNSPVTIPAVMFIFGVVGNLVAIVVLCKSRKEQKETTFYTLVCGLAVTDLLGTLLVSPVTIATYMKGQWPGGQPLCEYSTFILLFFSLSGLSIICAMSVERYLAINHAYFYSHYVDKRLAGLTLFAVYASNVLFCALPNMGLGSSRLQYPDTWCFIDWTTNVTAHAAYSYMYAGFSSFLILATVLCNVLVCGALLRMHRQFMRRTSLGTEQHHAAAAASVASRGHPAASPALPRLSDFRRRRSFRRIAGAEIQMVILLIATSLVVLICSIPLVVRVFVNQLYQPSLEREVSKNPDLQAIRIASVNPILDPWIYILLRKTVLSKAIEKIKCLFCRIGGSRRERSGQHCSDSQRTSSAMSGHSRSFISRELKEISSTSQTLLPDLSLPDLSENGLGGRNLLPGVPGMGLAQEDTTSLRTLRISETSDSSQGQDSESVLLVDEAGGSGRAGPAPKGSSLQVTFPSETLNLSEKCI

Mean Log (EC50), cAMP production [3]	pKi EP2 [5]	pKi EP4 [6]	pKi EP3 [7]	SMILES	effect on EFS-evoked contractions (words) [1]	also measured
−6.49	5.8	4.5	4.8	CCCCC[C@H](O)c1ccc([C@@H]2CCC(=O)[C@H]2CCCCCCC(=O)O)cc1 (single isomer, unassigned; peak 2) [Peak 2, Mixture 1 acid]	–	–
−6.39	6.3	4.8	4.7	CCCCC[C@@H](O)c1ccc([C@@H]2CCC(=O)[C@H]2CCCCCCC(=O)O)cc1 (single isomer, unassigned; peak 2) [Peak 2, Mixture 2 acid]	–	–

Further lines, the compound ahead of its results:

SMILES	Mean Log (EC50), cAMP production [3]	pKi EP2 [5]	pKi EP4 [6]	pKi EP3 [7]	effect on EFS-evoked contractions (words) [1]	also measured
CCCCCC(O)c1ccc(C2CCC(=O)C2CCCCCCC(=O)O)cc1 (racemic) [AH13205, (±)-trans-2-[4-(1-hydroxyhexyl)phenyl]-5-oxo-cyclopentaneheptanoic acid, reference compound]	–	–	–	–	concentration-dependent inhibition	effect on EFS-evoked contractions (words) ([1]; listed as AH-13205): inhibit electrically-induced contractions
CCCCC[C@H](O)c1ccc([C@H]2CCC(=O)[C@@H]2CCCCCCC(=O)O)cc1 (single isomer, unassigned) [Peak 1, Mixture 1 acid]	–	–	–	–	concentration-dependent inhibition	effect on interferon gamma release [2]: concentration-dependently inhibit interferon gamma release
CCCCC[C@@H](O)c1ccc([C@H]2CCC(=O)[C@@H]2CCCCCCC(=O)O)cc1 (single isomer, unassigned; peak 1) [Peak 1, Mixture 2 acid]	−7.25	6.9	5.1	4.8	concentration-dependent inhibition	Mean Log (EC50), inhibition of TNFα production by LPS-stimulated monocytes ([4]; logarithm of EC50): −5.172; EC50 ([4]; read-out: Mean EC50, inhibition of TNFα production by LPS-stimulated monocytes): 6.73 µM; selectivity for EP2 among the stereoisomers ([5]; from Table 5 pKi values, EP2 versus other EP receptors): most selective; maximum inhibition of EFS-induced contractions [1]: 57±2%; pEC50, inhibition of EFS-evoked response ([1]; 1×10^-7 to 1×10^-4 M): 5.3±0.1
CC(C)(C)NCC(O)c1cc(O)cc(O)c1 (centres unmarked) [terbutaline, reference compound]	–	–	–	–	no significant inhibitory effect	–
